In patent publication US6277859A, “Morphinan derivative and its pharmaceutical applications” (priority 1992, dated 2001):
Where a name gives a salt, the structure may show the parent alone.

Key:
κ receptor [1] = target: T1, κ receptor (Mus musculus, UniProt P33534); assay: Ke with norBNI in isolated mouse vas deference preparation; assay type: cell-based, mouse (male ddy)
T1 construct: The isolated vas deference was filled with Krebes-Henseleit solution; from tissue; host or cells: isolated vas deferens of male ddy mouse
T1 sequence (P33534 whole entry): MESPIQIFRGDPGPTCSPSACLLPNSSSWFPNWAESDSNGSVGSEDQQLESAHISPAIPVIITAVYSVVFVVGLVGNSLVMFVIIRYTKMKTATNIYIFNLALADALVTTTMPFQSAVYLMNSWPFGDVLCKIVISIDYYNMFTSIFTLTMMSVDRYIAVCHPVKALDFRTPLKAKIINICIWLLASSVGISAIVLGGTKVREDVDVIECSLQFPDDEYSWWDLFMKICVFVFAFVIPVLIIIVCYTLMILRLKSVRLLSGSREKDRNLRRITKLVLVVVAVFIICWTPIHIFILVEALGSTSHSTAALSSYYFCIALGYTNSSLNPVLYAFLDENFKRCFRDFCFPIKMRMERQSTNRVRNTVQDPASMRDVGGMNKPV

δ receptor = target: T2, δ receptor (Mus musculus, UniProt P32300); assay: Ke with NTI in isolated mouse vas deference preparation; assay type: cell-based, mouse (male ddy); details: NTI (δ)
T2 construct: The isolated vas deference was filled with Krebes-Henseleit solution; from tissue; host or cells: isolated vas deferens of male ddy mouse
T2 sequence (P32300 whole entry): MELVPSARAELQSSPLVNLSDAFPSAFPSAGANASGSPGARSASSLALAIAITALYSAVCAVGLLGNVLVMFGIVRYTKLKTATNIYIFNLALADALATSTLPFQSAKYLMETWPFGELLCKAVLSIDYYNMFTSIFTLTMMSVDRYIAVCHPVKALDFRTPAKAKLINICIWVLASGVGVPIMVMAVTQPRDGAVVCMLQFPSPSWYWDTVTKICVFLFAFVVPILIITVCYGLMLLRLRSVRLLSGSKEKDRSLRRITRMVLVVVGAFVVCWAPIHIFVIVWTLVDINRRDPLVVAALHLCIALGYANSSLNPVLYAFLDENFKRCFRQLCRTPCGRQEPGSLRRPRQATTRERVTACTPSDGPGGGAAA

κ receptor [2] = target: T3, κ receptor (Cavia porcellus, UniProt P41144); assay: Ke with norBNI in isolated guinea pig preparation; assay type: cell-based, guinea pig (male Hartley); details: guinea pig ileum
T3 construct: from tissue; host or cells: longitudinal muscle of the ileum of male Hartley guinea pig
T3 sequence (P41144 whole entry): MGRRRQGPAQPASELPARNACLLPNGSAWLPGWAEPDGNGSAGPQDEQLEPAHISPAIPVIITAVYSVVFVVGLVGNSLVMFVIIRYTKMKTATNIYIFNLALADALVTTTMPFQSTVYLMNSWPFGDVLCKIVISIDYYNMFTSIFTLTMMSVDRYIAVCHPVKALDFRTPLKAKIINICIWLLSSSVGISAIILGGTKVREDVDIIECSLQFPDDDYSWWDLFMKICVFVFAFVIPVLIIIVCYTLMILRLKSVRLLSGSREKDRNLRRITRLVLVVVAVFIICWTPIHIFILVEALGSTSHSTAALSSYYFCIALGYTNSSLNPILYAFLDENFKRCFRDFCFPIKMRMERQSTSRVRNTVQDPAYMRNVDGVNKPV
Protocol: A male Hartley guinea pig was used in this test.
After sacrificing the guinea pig and extracting the ileum, the lumen was washed with nutrient solution and only the longitudinal muscle was isolated. This longitudinal muscle was filled with Krebes-Henseleit solution (NaCl 118 mM; KCl 4.7 mM; CaCl2 2.5 mM; KH2 PO4 1.2 mM; NaHCO3 25 mM; MgSO4 1.2 mM and glucose 10 mM) warmed to 37° C. and suspended in a Magnus tube ventilated with 5% carbon dioxide and 95% oxygen. Electrical stimulus was performed at 0.1 Hz for 5.0 ms by means of ring-shaped platinum electrodes located above and below. Tissue contractions were recorded on a polygraph using an isometric transducer.
Then after adequately washing with nutrient solution and the contraction reaction stabilized, naloxone, a μ antagonist, or norBNI, a κ […], were added and the test compound was again cumulatively added after roughly 20 minutes. The Ke value was calculated using the following calculation formula from the difference in the efficacies of both agonists.
Ke=[Conc. of added antagonist]/(IC50 ratio-1)
IC50 ratio=IC50 in the presence of antagonist/IC50 in the absence of antagonist

μ receptor = target: T4, μ receptor (Mus musculus, UniProt P42866); assay: Ke with naloxone in isolated mouse vas deference preparation; assay type: cell-based, mouse (male ddy)
T4 construct: The isolated vas deference was filled with Krebes-Henseleit solution; from tissue; host or cells: isolated vas deferens of male ddy mouse
T4 sequence (P42866 whole entry): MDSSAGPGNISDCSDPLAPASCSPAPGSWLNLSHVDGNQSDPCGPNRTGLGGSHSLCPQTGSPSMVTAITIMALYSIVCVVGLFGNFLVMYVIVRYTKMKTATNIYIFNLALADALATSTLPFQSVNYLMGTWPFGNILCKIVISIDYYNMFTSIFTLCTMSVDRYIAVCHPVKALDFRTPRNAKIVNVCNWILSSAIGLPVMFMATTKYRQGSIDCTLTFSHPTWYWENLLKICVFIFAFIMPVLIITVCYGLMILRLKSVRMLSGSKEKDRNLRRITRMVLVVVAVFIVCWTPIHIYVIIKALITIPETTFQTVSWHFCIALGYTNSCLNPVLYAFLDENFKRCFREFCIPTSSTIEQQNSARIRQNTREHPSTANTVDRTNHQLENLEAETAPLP
Method in brief: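 Male ddy mouse vas deferens in Krebs-Henseleit at 37 °C, gassed 95% O2/5% CO2, field-stimulated at 0.1 Hz, 5.0 ms; isometric contractions recorded. Naloxone, NTI or norBNI was added, then test compound cumulatively after about 20 min. Ke = [antagonist]/(IC50 ratio−1), with IC50 ratio taken as IC50 with antagonist over IC50 without.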

Wistar rats = assay: Evaluation of diuretic action; assay type: in vivo, rat (male Wistar); details: sc; rat, s.c.; urine output for 5 h after 20 ml/kg saline oral; read-out: ED200, diuretic action (dose giving urine output of 200, non-dosed group = 100)
Method in brief: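 Male Wistar rats, 7-8 weeks old, received drug s.c. after water deprivation and bladder voiding, then 20 ml/kg saline orally 30 min later. Urine was collected over 5 h in metabolic cages. ED200 and ED500 are doses giving 200 and 500 urine output with the non-dosed group set at 100.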

Compound: CN(C(=O)Cc1ccc(Cl)c(Cl)c1)[C@H]1CC[C@@]2(O)[C@H]3Cc4ccc(O)c5c4[C@@]2(CCN3CC2CC2)[C@H]1O5 [Compound 1, 17-cyclopropylmethyl-4,5α-epoxy-3,14β-dihydroxy-6α-(N-methyl-3,4-dichlorophenylacetamido)morphinan.hydrochloride]
- selective agonist for κ receptors (in words) (κ receptor [1]): selective agonists for κ receptors
- Ke norBNI (κ receptor [1]; norBNI (κ)): 0.548 nM
- Ke NTI (δ receptor): 17.3 nM
- Ke norBNI (κ receptor [2]): 0.16 nM
- Ke Naloxone (μ receptor): 53 nM
- ED200 (Wistar rats): 2.7 µg/kg
